Active and inactive are the calls of the source. No rule for the calls is given here.
System: M. tuberculosis BioA-TetON overexpression strain, growth inhibition
Experiment: PubChem AID 743073
Conditions: for IC90: IC90 growth inhibition

In the case of `CC(=O)c1ccc(N2CCN(Cc3ccc4c(c3)OCO4)CC2)cc1`, the IC50 is reported as > 50 µM (inactive) and the IC90 is reported as greater than 50 µM.

Work on `Cc1ccc(/C=C(\CC(=O)O)c2nc3ccccc3s2)cc1[N+](=O)[O-]` yielded an IC50 of 11.7 µM and an IC90 greater than 50 µM.

With `CC(=O)c1ccc(N2CCN(C(=O)c3cccc(F)c3)CC2)cc1` the IC50 was > 50 µM (inactive) and the IC90 was greater than 50 µM.

In the case of `O=C(Nc1ccncc1)c1cc2nc(C3CC3)cc(C(F)F)n2n1`, the IC50 is reported as > 50 µM (inactive) and the IC90 is reported as greater than 50 µM.

With `CC(=O)c1ccc(N2CCN(C(=O)c3ccc(C)cc3)CC2)cc1` the IC50 was > 50 µM (inactive) and the IC90 was greater than 50 µM.

For `O=C(Nc1ccc2snnc2c1)N1CCN(c2ccccc2)CC1`, the IC50 was > 50 µM (inactive) and the IC90 was greater than 50 µM.

`O=C(Nc1ccc2snnc2c1)N1CCOCC1` was tested, and the IC50 was > 50 µM (inactive) and the IC90 was greater than 50 µM.

`CC(=O)c1ccc(N2CCN(C(=O)c3ccc(Cl)cc3)CC2)cc1` was tested, and the IC50 was > 50 µM (inactive) and the IC90 was greater than 50 µM.

`CC(=O)c1ccc(N2CCN(C(=O)c3ccccc3)CC2)cc1` was tested, and the IC50 was > 50 µM (inactive) and the IC90 was greater than 50 µM.

In the case of `O=C(Nc1cccc(Cl)c1)N1CCN(c2ccccc2)CC1`, the IC50 is reported as 25.4 µM and the IC90 is reported as greater than 50 µM.

With `O=C(Nc1ccc(Cl)cc1)c1cc2nc(C3CC3)cc(C(F)(F)F)n2n1` the IC50 was > 50 µM (inactive) and the IC90 was greater than 50 µM.

`Cc1ccccc1/C=C(\CCC(=O)O)c1nc2ccccc2s1` showed an IC50 of 6.5 µM and an IC90 of 43.5 µM.

With `O=C(Nc1cccnc1)N1CCN(c2ccccc2)CC1` the IC50 was > 50 µM (inactive) and the IC90 was greater than 50 µM.

With `Cc1ccc(/C=C(\CCC(=O)O)c2nc3ccccc3s2)cc1` the IC50 was 1.7 µM and the IC90 was 5.8 µM.

In the case of `O=C(Nc1cccnc1)c1cc2nc(-c3cccs3)cc(C(F)(F)F)n2n1`, the IC50 is reported as > 50 µM (inactive) and the IC90 is reported as greater than 50 µM.

`COc1cccc(NC(=O)N2CCN(c3ccccc3)CC2)c1` gave an IC50 of 50 µM and an IC90 greater than 50 µM.

`CCc1ccc(C(=O)N2CCN(Cc3ccc4c(c3)OCO4)CC2)cc1` showed an IC50 of 11.2 µM and an IC90 of 47.2 µM.

In the case of `Cc1ccc(-c2cc(C(F)(F)F)n3nc(C(=O)Nc4cccnc4)cc3n2)cc1`, the IC50 is reported as > 50 µM (inactive) and the IC90 is reported as greater than 50 µM.

Work on `O=C(Nc1cccc(F)c1)N1CCN(c2ccccc2)CC1` yielded an IC50 of 12.8 µM and an IC90 greater than 50 µM.

`Cc1cc(C)n2nc(C(=O)Nc3cccnc3)nc2n1` was tested, and the IC50 was > 50 µM (inactive) and the IC90 was greater than 50 µM.

With `O=C(Nc1cccnc1)c1cnn2c(C(F)F)cc(C3CC3)nc12` the IC50 was > 50 µM (inactive) and the IC90 was greater than 50 µM.

In the case of `O=C(Nc1ccc(Cl)c(-c2nc3ccccc3[nH]2)c1)c1cccnc1`, the IC50 is reported as 10.3 µM and the IC90 is reported as 39.5 µM.

With `CC(=O)c1ccc(N2CCN(C(=O)c3ccc4c(c3)OCCO4)CC2)cc1` the IC50 was > 50 µM (inactive) and the IC90 was greater than 50 µM.

With `Cc1ccc(NC(=O)N2CCN(c3ccccc3)CC2)cc1` the IC50 was 50 µM and the IC90 was greater than 50 µM.

`O=C(COc1ccc2ccc(=O)oc2c1)N1CCN(c2ccc(F)cc2)CC1` was tested, and the IC50 was > 50 µM (inactive) and the IC90 was greater than 50 µM.

Work on `Cc1nc2cc(NC(=O)N3CCN(c4ccccc4)CC3)ccc2o1` yielded an IC50 of 50 µM and an IC90 greater than 50 µM.

Work on `O=C(c1ccc2c(c1)OCO2)N1CCN(c2ccccc2)CC1` yielded an IC50 of 24.4 µM and an IC90 greater than 50 µM.

`O=C(Nc1ccc2[nH]ccc2c1)N1CCN(c2ccccc2)CC1` was tested, and the IC50 was 7 µM and the IC90 was greater than 50 µM.

`O=C(O)CC/C(=C\c1ccc([N+](=O)[O-])cc1)c1nc2ccccc2s1` was tested, and the IC50 was 8.3 µM and the IC90 was 34.3 µM.

`CC(=O)c1ccc(N2CCN(C(=O)c3ccc(Br)cc3)CC2)c(F)c1` was tested, and the IC50 was > 50 µM (inactive) and the IC90 was greater than 50 µM.

With `COc1ccc(-c2cc(C(F)(F)F)n3nc(C(=O)Nc4cccnc4)cc3n2)cc1` the IC50 was > 50 µM (inactive) and the IC90 was greater than 50 µM.

With `O=C(O)CC/C(=C\c1ccccc1[N+](=O)[O-])c1nc2ccccc2s1` the IC50 was > 50 µM (inactive) and the IC90 was greater than 50 µM.

In the case of `O=C(Nc1ccccc1)N1CCN(c2ccccc2)CC1`, the IC50 is reported as 9.9 µM and the IC90 is reported as greater than 50 µM.

In the case of `CCOC(=O)N1CCN(C(=O)Nc2ccc3snnc3c2)CC1`, the IC50 is reported as > 50 µM (inactive) and the IC90 is reported as greater than 50 µM.

`COc1cccc(NC(=O)CCC2CCN(C(=O)c3ccc(C(C)=O)s3)CC2)c1` was tested, and the IC50 was > 50 µM (inactive) and the IC90 was greater than 50 µM.

`O=C(c1ccc2c(c1)OCO2)N1CCN(Cc2ccccc2)CC1` was tested, and the IC50 was > 50 µM (inactive) and the IC90 was greater than 50 µM.

`Cc1ccc(/C=C(\CCCC(=O)O)c2nc3ccccc3s2)cc1[N+](=O)[O-]` gave an IC50 of 5.6 µM and an IC90 greater than 50 µM.

For `O=C(Nc1ccc(F)cc1)N1CCN(c2ccccc2)CC1`, the IC50 was 19.3 µM and the IC90 was greater than 50 µM.

In the case of `O=C(c1ccc2c(c1)OCO2)N1CCN(c2ccc(F)cc2)CC1`, the IC50 is reported as 28.3 µM and the IC90 is reported as greater than 50 µM.

`CC(C)(C)c1ccc(C(=O)N2CCN(c3ccc4c(c3)OCO4)CC2)cc1` gave an IC50 of 13.1 µM and an IC90 of 36.9 µM.

`CC(=O)c1ccc(N2CCN(C(=O)c3cccnc3)CC2)cc1` was tested, and the IC50 was > 50 µM (inactive) and the IC90 was greater than 50 µM.

For `COc1ccc(C(=O)N2CCN(c3ccc(C(C)=O)cc3)CC2)cc1`, the IC50 was > 50 µM (inactive) and the IC90 was greater than 50 µM.

`CCc1ccc(N2CCN(C(=O)c3ccc4c(c3)OCO4)CC2)cc1` gave an IC50 of 16.1 µM and an IC90 greater than 50 µM.

`CC(=O)c1ccc(N2CCN(C(=O)c3cccc(Cl)c3)CC2)cc1` was tested, and the IC50 was 44.3 µM (inactive) and the IC90 was greater than 50 µM.

`COc1cccc(C(=O)N2CCN(c3ccc(C(C)=O)cc3)CC2)c1` was tested, and the IC50 was > 50 µM (inactive) and the IC90 was greater than 50 µM.

`CC(=O)c1ccc(N2CCN(C(=O)c3ccc4c(c3)OCO4)CC2)cc1` was tested, and the IC50 was 52 µM (inactive) and the IC90 was greater than 50 µM.

With `O=C(Nc1ccc2snnc2c1)N1CCCCC1` the IC50 was 50 µM and the IC90 was greater than 50 µM.

`Cc1cccc(/C=C(\CCC(=O)O)c2nc3ccccc3s2)c1` gave an IC50 of 3.1 µM and an IC90 of 9 µM.

In the case of `O=C(Nc1cccnc1)c1cnn2c(C(F)(F)F)cc(-c3ccccc3)nc12`, the IC50 is reported as > 50 µM (inactive) and the IC90 is reported as greater than 50 µM.

Compound `Cc1ccc(/C=C(\CCC(=O)O)c2nc3ccccc3s2)cc1[N+](=O)[O-]` has an IC50 of 1.5 µM and an IC90 of 4.7 µM.

`CC(=O)c1ccc(N2CCN(C(=O)c3ccc(F)cc3)CC2)cc1` was tested, and the IC50 was > 50 µM (inactive) and the IC90 was greater than 50 µM.

In the case of `Cc1cc(C)n2nc(C(=O)Nc3cccnc3)cc2n1`, the IC50 is reported as > 50 µM (inactive) and the IC90 is reported as greater than 50 µM.

`CCN(CC)c1ccc2cc(C(=O)c3cccs3)c(=O)oc2c1` showed an IC50 of 6.4 µM and an IC90 greater than 50 µM.

In the case of `COc1cc(/C=C/C(=O)Nc2cccnc2)cc(OC)c1OC`, the IC50 is reported as > 50 µM (inactive) and the IC90 is reported as greater than 50 µM.

For `COC(=O)c1c(C(=O)OC)c(-c2cccc(F)c2)n2c1CS(=O)C2` (stereo not given), the IC50 was > 50 µM (inactive) and the IC90 was greater than 50 µM.

With `Cc1nc2ccc(NC(=O)N3CCN(c4ccccc4)CC3)cc2s1` the IC50 was 2.8 µM and the IC90 was 23.6 µM.

For `COc1ccc(NC(=O)N2CCN(c3ccccc3)CC2)cc1`, the IC50 was > 50 µM (inactive) and the IC90 was greater than 50 µM.

`COc1ccc(N2CCN(C(=O)c3ccc4c(c3)OCO4)CC2)cc1` gave an IC50 of 17.6 µM and an IC90 greater than 50 µM.

Work on `O=C(c1ccc2c(c1)OCO2)N1CCN(c2ccc(Cl)cc2)CC1` yielded an IC50 of 11.6 µM and an IC90 of 47.2 µM.

For `CC(=O)c1ccc(N2CCN(C(=O)c3ccc4ncsc4c3)CC2)cc1`, the IC50 was > 50 µM (inactive) and the IC90 was greater than 50 µM.

Source: PubChem BioAssay AID743073 (Broad Institute, 2013)
